Data on 2 compounds can be found in patent US20230241037A1, “CROSS-LINKED MEDICATION FOR TREATMENT OF CORONAVIRAL INFECTION AND METHOD OF TREATMENT” (1GLOBE HEALTH INSTITUTE, NANJING, priority 2020, published 2023).

A short description of series [1]: Standard CCK-8 cytotoxicity assay. Type of series: cell-based. To be noted: African green monkey, Vero E6 cells, 48 hours incubation. Here is the method: Vero E6 African green monkey kidney cell line was obtained from American Type Culture Collection (ATCC, No. 1586) and maintained in MEM medium (MEM; Gibco Invitrogen) supplemented with 10% fetal bovine serum (FBS; Gibco Invitrogen) at 37° C. in an atmosphere of 5% CO2.
Standard CCK-8 assays were performed to measure the cytotoxic effect of the drug candidates on Vero E6 cells, which was performed in accordance with the manufacturer's instructions (Beyotime, China).

The next series relates to SARS-CoV-2. Briefly: microbe, parasite or virus in culture. Type of series: cell-based. To be noted: for EC50: Severe acute respiratory syndrome coronavirus 2, Vero C1008, Vero E6 cells, MOI 0.05, 1 hour pretreatment, viral RNA in supernatant 48 hours post infection; for SI (selectivity index): from the CC50 and EC50 values in Vero E6 cells.

In turn, `NC(=O)c1ncn([C@@H]2O[C@H](CO)[C@@H](O)[C@H]2O)n1` [RBV, 1-[(2R, 3R, 4S, 5R)-3,4-dihydroxy-5-(hydroxymethyl)oxolan-2-yl]-1H-1,2,4-triazole-3-carboxamide] had a CC50 at 48 h in series [1] above 400 µM. Further, in the series with SARS-CoV-2, the EC50 amounted to 109 µM and the “SI (selectivity index)” value was above 3.7.
Taken in the same sequence, the figures for `CC(=O)Oc1ccccc1C(=O)Nc1ncc([N+](=O)[O-])s1` [NTZ, o-[N-(5-nitro-1,3-thiazol-2-yl)carbamoyl]phenol acetate)] were 36.8 µM, 2.1 µM and 17.5.
